Measurements reported in patent US6562785B1, “Method for overcoming bacterial antibiotic resistance” (priority 1999, dated 2003).
≈ marks a conversion by molar mass, not a printed value.

What was measured:
[1] = tested on: Staphylococcus aureus (ATCC 29213) and Micrococcus luteus; experiment: Membrane permeability by TO-PRO-3 staining, flow cytometry; type: cell-based; details: for bacteria stained by TO-PRO-3: 4 hours exposure to 4 μg/ml
Description: (§1) Flow cytometric studies were performed using a laboratory-built dual laser instrument optimized for bacterial analysis. DiOC2(3) was excited at 488 nm by a beam from an argon ion laser; its green fluorescence was detected through a 530 nm, 20 nm bandwidth bandpass filter, and its red fluorescence was detected through a 610 nm, 19 nm bandpass filter. TO-PRO-3™ was excited at 633 nm by a beam from a helium-neon laser, and its fluorescence was detected through a 695 nm long pass filter. Light scattered at small angles to the 488 nm beam (forward scatter) was used as the trigger signal. Sheath flow rate was 10 ml/min; sample analysis rate was kept below 1,000 events/second. The signal pulse amplitudes were captured by high-precision peak detectors, and digitized using an Analogic HSDAS-16 16-bit data acquisition system in a Pentium-class personal computer. Software was used to perform logarithmic conversion on all of the parameters, which were represented on a 256-channel, 4-decade logarithmic scale.
(§2) Staphylococcus aureus (ATCC 29213) and Micrococcus luteus were grown overnight in trypticase soy broth. Stock solutions of antibiotics were made according to Anhalt & Washington (1991)(Balows, A. et al, (eds) American Society for Microbiology, Washington, 1991, pp. 1199-200). Antibiotics were diluted to the appropriate concentration in 1 ml of Mueller-Hinton broth (Gibco, Gaithersburg, Md.), and filtered though a 0.22 μm filter (Gelman Sciences, Ann Arbor, Mich.). MIC was defined as the minimum concentration of antibiotic that caused no growth after 24 hours in Mueller-Hinton broth.
(§3) Bacteria were added to an antibiotic solution at a concentration of 5.5×10^5/ml and incubated for the appropriate amount of time at 37 degrees C. while shaking. At each time point, a […] aliquot was removed and 30 μM DiOC2(3) and 100 nM TO-PRO-3™ were added simultaneously. The bacteria were allowed to incubate with the dye for 4 minutes prior to flow cytometric analysis. A second […] aliquot was treated identically, except that CCCP (final concentration 15 μM) was added to electrically depolarize the bacteria (i.e., to reduce membrane potential to zero).
(§4) Membrane potential was determined as a ratio of red to green DiOC2(3) fluorescence, providing a cell size-independent measure of MP. To measure membrane permeability, 100 nM TO-PRO-3™ was used in conjunction with the MP dye, DiOC2(3). […] Cells killed by heat exposure (100 degrees C. for 10 minutes) were used as positive controls for TO-PRO-3™ staining.
Effects of amoxicillin (MIC 2 μg/ml) were strongly concentration-dependent. […] Changes in permeability could be observed 45 minutes after antibiotic addition; however, the variance of the TO-PRO-3™ fluorescence distribution was quite large, due primarily to the large variance in size resulting from drug administration. The raw TO-PRO-3™ fluorescence data was corrected for size variation by calculating a quantity proportional to the logarithm of the ratio of TO-PRO-3™ fluorescence to green DiOC2(3) fluorescence, which is known to be proportional to size; the logarithm of green fluorescence was subtracted from the logarithm of TO-PRO-3™ fluorescence, and a constant was added to keep the values on scale. This allowed cells which had become permeable to TO-PRO-3™ to be visualized as a discrete population. Thus, when the size of the bacteria is altered by the permeabilizing agent, such as β-lactam antibiotics used at concentrations below MIC, correction for change in cell volume is important in making permeability measurements. […] Resumption of bacterial growth was coincident with this reversion to a TO-PRO-3™-impermeable state, which occurred after 3 hours in the presence of 0.25 μg/ml amoxicillin and after 4 hours in the presence of 0.5 μg/ml.

[2] = tested on: Staphylococcus aureus (ATCC 29213) and Micrococcus luteus; experiment: Membrane potential by ratio of red to green DiOC2(3) fluorescence, flow cytometry; type: cell-based
Description: as §1, §2, §3, §4

[3] = tested on: Staphylococcus aureus (ATCC 29213) and Micrococcus luteus; experiment: MIC: minimum antibiotic concentration causing no growth after 24 hours in Mueller-Hinton broth; type: cell-based; details: ATCC29213
Description: as §2, with “Anhalt” left out

[4] = tested on: Staphylococcus aureus (ATCC 29213) and Micrococcus luteus; experiment: Bacterial growth and size (bead-referenced counts, forward scatter, microscopy); type: cell-based
Description: as §2
Bacteria were added to an antibiotic solution at a concentration of 5.5×10^5/ml and incubated for the appropriate amount of time at 37 degrees C. while shaking. […]
Bacteria were counted by adding […] sky blue beads (Spherotech, Libertyville, Ill.) to the cell suspension at a known concentration, determined by counting on a haemocytometer. […] Beads were diluted 1:100 into the bacterial sample and could be identified and counted based on their intense fluorescence (excitation at 633 nm; emission above 695 nm). The volume of sample analyzed in any given aliquot was calculated from the number of beads measured; dividing the number of bacteria by this volume yielded the concentration of bacteria in the aliquot.

[5] = even at high concentrations; cited from earlier work
gram negative organisms = details: concentrations up to 10 times MIC; cited from earlier work

Q: With `[H]/N=C(/N)N[C@H]1[C@H](O)[C@@H](O)[C@H](O[C@@H]2O[C@@H](C)[C@](O)(C=O)[C@H]2O[C@@H]2O[C@@H](CO)[C@H](O)[C@@H](O)[C@@H]2NC)[C@@H](N/C(N)=N\[H])[C@@H]1O` [Streptomycin, streptomycin] as the compound, how does the permeability changes ([1]; 5 μg/ml, 1 hour to 4 hours) read?
A: No permeability changes were seen

Q: What about the “effect on MP” value ([2]; 5 μg/ml, by 1 hour, remained reduced at 105 minutes and 4 hours) of the same compound?
A: reduced MP

Q: And the “effect on MP after erythromycin preincubation” value ([2]; organisms preincubated with 1 mg/ml erythromycin for 30 minutes)?
A: abolished

Q: What does the source list for `CN(C)[C@@H]1C(O)=C(C(N)=O)C(=O)[C@@]2(O)C(O)=C3C(=O)c4c(O)cccc4[C@@](C)(O)[C@H]3C[C@@H]12` [Tetracycline, tetracycline]?
A: MIC [3]: 0.25 mg/L (≈ 0.563 µM); bacteria stained by TO-PRO-3 [1]: 50%; MP reduced to ([2]; 4 μg/ml, after 4 hours): −50 mV

Q: Which results are given for `CC1(C)S[C@@H]2[C@H](NC(=O)[C@H](N)c3ccc(O)cc3)C(=O)N2[C@H]1C(=O)O` [amoxicillin]?
A: MIC [3]: 2 mg/L (≈ 5.47 µM); bacterial size ([4]; concentrations below MIC, microscopy and forward scatter): drastically increased in size; time to reversion to TO-PRO-3-impermeable state, coincident with resumption of bacterial growth ([1]; 0.25 μg/ml): 3 h; time to reversion to TO-PRO-3-impermeable state, coincident with resumption of bacterial growth ([1]; 0.5 μg/ml): 4 h; percentage of cells permeable to TO-PRO-3, 4 μg/ml compared with 1 μg/ml ([1]; 4 μg/ml versus 1 μg/ml): lower percentages of cells permeable to TO-PRO-3™; membrane integrity after four hours ([1]; 0.25 or 0.5 μg/ml, after four hours): the majority of the cells regained their membrane integrity; TO-PRO-3 permeable population and its MP ([1]; after 2 hours at either 0.25 or 0.5 μg/ml): a population that was permeable to TO-PRO-3™, but that maintained a normal MP, was detected; time after antibiotic addition at which changes in permeability could be observed ([1]; concentrations below MIC): 45 min; dominant characteristic of treated cells (MP) ([2]; concentrations above MIC): loss of MP

Q: Which “changes in permeability (Mortimer et al.)” value [5] does the source give for `O=C(N[C@H](CO)[C@H](O)c1ccc([N+](=O)[O-])cc1)C(Cl)Cl` [chloramphenicol] here?
A: does not cause changes in permeability

Q: What about the bacterial growth ([4]; 4 μg/ml) of the same compound?
A: completely prevented bacterial growth

Q: And the changes in permeability ([1]; 4 μg/ml, after 4 hours)?
A: no changes

Q: And the “changes in MP” value ([2]; 4 μg/ml, after 4 hours)?
A: no changes

Q: For `CC[C@H]1OC(=O)[C@H](C)[C@@H](O[C@H]2C[C@@](C)(OC)[C@@H](O)[C@H](C)O2)[C@H](C)[C@@H](O[C@@H]2O[C@H](C)C[C@H](N(C)C)[C@H]2O)[C@](C)(O)C[C@@H](C)C(=O)[C@H](C)[C@@H](O)[C@]1(C)O` [erythromycin], which MIC [3] is on record?
A: 4 mg/L (≈ 5.45 µM)

Q: And the “bacteria stained by TO-PRO-3” value [1]?
A: 20%

Q: What about the permeability changes ([1]; concentrations below 1 μg/ml) of the same compound?
A: did not cause any permeability changes

Q: What about the “MP reduced to” value ([2]; 4 μg/ml, after 4 hours) of the same compound?
A: −50 mV

Q: And the depolarization ([2]; dependence on concentration and time)?
A: concentration- and time-dependent depolarizations

Q: With gentamicin as the compound, how does the “changes in permeability to nucleic acid stains” value (gram negative organisms) read?
A: no
